Where two headings read alike, the source gives them in different places.
Tests used:
[1] = system: hESC (HS420) expressing Ki67-30-GMK; assay: ATP-based cell survival assay, GCV-induced cell death; conditions: Homo sapiens, 96 h, read-out: EC50 of GCV (cell survival)
Description: (§1) Our first generation of suicide gene was engineered with the wild type thymidine kinase (wt-TK). To improve the suicide gene efficacy, we investigated different TK variants; wt-TK, 30-GMK, SR39, SR39h, and SR39h D116E variants. These sequences were chosen based on the analysis of the literature investigating HSV1-TK variants, as well as a gain of function mutation in the CMV UL-97 kinase. The efficacy of each variants was determined as percentage of cell survival following prodrug treatment compared to non-treated hESC. For this purpose, we used the ATP-based assay, which measures cellular ATP content and thereby provides a reliable estimate of the number of healthy cells. […]
(§2) Figure 1 EC50 of ganciclovir (GCV) in cell expressing different thymidine kinase (TK) variants. […] Number of surviving cells was monitored using bioluminescent ATP-based assay. […]
(§3) Cell culture plate (96 wells plate Corning #3907, Corning, Lonay, Switzerland) were pre-coated with 60 μL per well of Poly-L-ornithine solution (Sigma, Merk, Eysins, Switzerland) at 37 °C for 30 min. […] For EC50 assays, the medium was changed daily for 4 days, then cell viability was assessed using an ATP-based assay. EC50 values for each construct were calculated using a four parameters equation (GraphPad, Prism8, San Diego, CA, USA). […]

[2] = system: hESC (HS420) expressing Ki67-wt-TK; assay: as above; conditions: Homo sapiens; 96 h GCV exposure; wt-TK under Ki67 promoter
Description: as §1, §2, §3

[3] = system: hESC (HS420) expressing Ki67-SR39; assay: as above; design: species or system human; conditions: for EC50: Homo sapiens
Description: Our first generation of suicide gene was engineered with the wild type thymidine kinase (wt-TK). To improve the suicide gene efficacy, we investigated different TK variants; wt-TK, 30-GMK, SR39, SR39h, and SR39h D116E variants. These sequences were chosen based on the analysis of the literature investigating HSV1-TK variants, as well as a gain of function mutation in the CMV UL-97 kinase. The efficacy of each variants was determined as percentage of cell survival following prodrug treatment compared to non-treated hESC. For this purpose, we used the ATP-based assay, which measures cellular ATP content and thereby provides a reliable estimate of the number of healthy cells. The 50% effective concentration (EC50) was defined as the drug concentration required to reduce the percentage of cell survival by 50%. […] In order to optimize our system, we first replaced the wt-TK by the 30-GMK variant, which is a fusion between the 30 TK variant and guanylate kinase (GMK). Note that GMK is mediating the second phosphorylation step of antiviral nucleoside analogs. […] Microbial codon usage might not yield optimal results in human cells. We therefore adapted the SR39 sequence to a typical human codon usage. For this purpose, 218 of the total 376 codons of the SR39 sequence were changed (for details see Supplementary Sequence 1 and Method section). We will refer to this sequence as the SR39h variant.
as §2, §3

[4] = system: host cell DNA; conditions: cited from earlier work

In the case of Nc1nc(O)c2ncn(COC(CO)CO)c2n1 [GCV, ganciclovir], the EC50 [1] is reported as 110 nM, the EC50 [2] is reported as 96 nM and the “Fold increase compare to wt-TK (fold reduction in EC50)” value ([3]; GCV EC50 ratio, Ki67-SR39 vs wt-TK) is reported as 50 fold. For the same compound, the EC50 ([3]; 96 h, read-out: EC50 of GCV (cell survival)) was 2 nM, the EC50 ([3]; 96 h GCV exposure, Ki67-SR39, read-out: GCV EC50) was 1.9 nM and the “Fragmentation of host cell DNA” value [4] was “induce fragmentation of host cell DNA”.

Reference: paper PMC8834506, “Optimization of Thymidine Kinase-Based Safety Switch for Neural Cell Therapy” (Cells, 2022)
